In the NIST ThermoML archive (doi:10.1016/j.jct.2008.09.002):

Assays:
[1] = molar heat capacity at constant pressure; xn = mol fraction of the nth substance listed; conditions: 101.3 kPa, Liquid, Small sample (50 mg) DSC
[2] = xn = mol fraction of the nth substance listed; conditions: 101.3 kPa, Liquid, Vibrating tube method
[3] = excess molar enthalpy (molar enthalpy of mixing); xn = mol fraction of the nth substance listed; conditions: 303.15 K, 101.3 kPa, Liquid, Calvet calorimetry

C[N+](=O)[O-] [nitromethane] + CCOS(=O)(=O)[O-].CCn1cc[n+](C)c1
Conditions | mass density, [2] [kg/m3] | molar heat capacity at constant pressure, [1] [J/K/mol]
293.15 K, x2 = 0.0513 | 1162.5 | 120.8
293.15 K, x2 = 0.0991 | 1176.4 | 134.3
293.15 K, x2 = 0.2013 | 1196.4 | 164
293.15 K, x2 = 0.3095 | 1209.6 | 195.4
293.15 K, x2 = 0.4073 | 1217.8 | 223.5
293.15 K, x2 = 0.5056 | 1223.9 | –
293.15 K, x2 = 0.5489 | 1226.3 | 264
293.15 K, x2 = 0.5944 | 1228.3 | –
293.15 K, x2 = 0.689 | 1232.1 | 304
293.15 K, x2 = 0.7805 | 1235.1 | 329.9
293.15 K, x2 = 0.8817 | 1237.9 | 358.6
293.15 K, x2 = 0.9398 | 1239.3 | –
293.15 K, x2 = 0.9522 | 1239.6 | –
298.15 K, x2 = 0.0513 | 1156.4 | 121.1
298.15 K, x2 = 0.0991 | 1170.9 | 134.7
298.15 K, x2 = 0.2013 | 1191.5 | 164.6
298.15 K, x2 = 0.3095 | 1205.1 | 196.1
298.15 K, x2 = 0.4073 | 1213.6 | 224.4
298.15 K, x2 = 0.5056 | 1220 | –
298.15 K, x2 = 0.5489 | 1222.4 | 265.2
298.15 K, x2 = 0.5944 | 1224.5 | –
298.15 K, x2 = 0.689 | 1228.4 | 305.5
298.15 K, x2 = 0.7805 | 1231.5 | 331.6
298.15 K, x2 = 0.8817 | 1234.4 | 360.5
298.15 K, x2 = 0.9398 | 1235.8 | –
298.15 K, x2 = 0.9522 | 1236.2 | –
303.15 K, x2 = 0.0513 | 1150.4 | 121.6
303.15 K, x2 = 0.0991 | 1165.3 | 135.3
303.15 K, x2 = 0.2013 | 1186.6 | 165.3
303.15 K, x2 = 0.3095 | 1200.7 | 196.9
303.15 K, x2 = 0.4073 | 1209.5 | 225.5
303.15 K, x2 = 0.5056 | 1216 | –
303.15 K, x2 = 0.5489 | 1218.5 | 266.6
303.15 K, x2 = 0.5944 | 1220.7 | –
303.15 K, x2 = 0.689 | 1224.7 | 307.2
303.15 K, x2 = 0.7805 | 1228 | 333.5
303.15 K, x2 = 0.8817 | 1230.9 | 362.6
303.15 K, x2 = 0.9398 | 1232.4 | –
303.15 K, x2 = 0.9522 | 1232.7 | –
308.15 K, x2 = 0.0513 | 1144.3 | 122.1
308.15 K, x2 = 0.0991 | 1159.7 | 135.9
308.15 K, x2 = 0.2013 | 1181.7 | 166
308.15 K, x2 = 0.3095 | 1196.2 | 197.8
308.15 K, x2 = 0.4073 | 1205.3 | 226.7
308.15 K, x2 = 0.5056 | 1212.1 | –
308.15 K, x2 = 0.5489 | 1214.6 | 268.1
308.15 K, x2 = 0.5944 | 1216.9 | –
308.15 K, x2 = 0.689 | 1221 | 308.9
308.15 K, x2 = 0.7805 | 1224.4 | 335.5
308.15 K, x2 = 0.8817 | 1227.5 | 364.8
308.15 K, x2 = 0.9398 | 1229 | –
308.15 K, x2 = 0.9522 | 1229.3 | –
313.15 K, x2 = 0.0513 | 1138.2 | 122.7
313.15 K, x2 = 0.0991 | 1154.2 | 136.6
313.15 K, x2 = 0.2013 | 1176.9 | 166.8
313.15 K, x2 = 0.3095 | 1191.8 | 198.7
313.15 K, x2 = 0.4073 | 1201.2 | 227.9
313.15 K, x2 = 0.5056 | 1208.2 | –
313.15 K, x2 = 0.5489 | 1210.8 | 269.7
313.15 K, x2 = 0.5944 | 1213.1 | –
313.15 K, x2 = 0.689 | 1217.4 | 310.9
313.15 K, x2 = 0.7805 | 1220.9 | 337.7
313.15 K, x2 = 0.8817 | 1224 | 367.1
313.15 K, x2 = 0.9398 | 1225.6 | –
313.15 K, x2 = 0.9522 | 1225.9 | –
318.15 K, x2 = 0.0513 | 1132.2 | 123.2
318.15 K, x2 = 0.0991 | 1148.6 | 137.2
318.15 K, x2 = 0.2013 | 1172 | 167.6
318.15 K, x2 = 0.3095 | 1187.4 | 199.7
318.15 K, x2 = 0.4073 | 1197.1 | 229.2
318.15 K, x2 = 0.5056 | 1204.2 | –
318.15 K, x2 = 0.5489 | 1207 | 271.4
318.15 K, x2 = 0.5944 | 1209.3 | –
318.15 K, x2 = 0.689 | 1213.8 | 312.9
318.15 K, x2 = 0.7805 | 1217.3 | 340
318.15 K, x2 = 0.8817 | 1220.6 | 369.6
318.15 K, x2 = 0.9398 | 1222.2 | –
318.15 K, x2 = 0.9522 | 1222.5 | –

[3]
Conditions | excess molar enthalpy [kcal/mol]
x2 = 0.1001 | -0.0688
x2 = 0.1977 | -0.116
x2 = 0.3075 | -0.142
x2 = 0.4001 | -0.154
x2 = 0.5071 | -0.148
x2 = 0.6026 | -0.131
x2 = 0.6953 | -0.108
x2 = 0.8026 | -0.0736
x2 = 0.8668 | -0.05
